Experimental data as given in paper PMC5911580, “YL143, a novel mutant selective irreversible EGFR inhibitor, overcomes EGFR^L858R, T790M‐mutant resistance in vitro and in vivo” (Cancer Medicine, 2018).

Key:
A431 (EGFR^WT) cells = test: CCK-8 cell growth assay, A431; assay type: cell-based; details: Homo sapiens, A-431; CCK-8, 72 h; read-out: antiproliferative IC50 A431
Protocol: Cells were seeded into 96‐well plates at a density of 1500~3000/well in complete medium overnight. Then, cells were treated with various concentrations (0.01~1000 nmol/L) of YL143 for additional 3 days. Viable cell numbers were determined by Cell Counting Kit 8 (CCK8, CK04, Dojindo Laboratories, Japan). Each assay consisted of three replicate wells and repeated at least three times. […] Each IC50 value was expressed as mean ± SD.

[1] = system: CDK2, CDK4, cyclin D2, cyclin E, caspase-3, caspase-9 in H1975 cells; test: Western blot of cell cycle and apoptosis proteins in H1975 cells; assay type: cell-based, human; details: 3 to 300 nmol/L, 48 h
Protocol: (§1) Cells were treated with various concentrations of compound for designed time. Then, cells were lysed using 1 × SDS sample lysis buffer (CST recommended) with protease and phosphatase inhibitors. Cell lysates were loaded and electrophoresed onto 8–12% SDS‐PAGE gel, and then, separated proteins were transferred to a PVDF film. The film was blocked with 5% fat‐free milk in TBS solution containing 0.5% Tween‐20 for 4 h at room temperature and then incubated with corresponding primary antibody (1:1000–1:200) overnight at 4°C. After washing with TBST, HRP‐conjugated secondary antibody was incubated for 2 h. And the protein signals were visualized by ECL Western Blotting Detection Kit (Thermo Scientific, Waltham, MA) and detected with Amersham Imager 600 system (GE, America).
Figure 3 YL143 induces G0/G1 cell cycle arrest and apoptosis in H1975 cells. (A) YL143 induces G0/G1 cell cycle arrest in H1975 cells H1975 cells were treated with 3, 30 or 300 nmol/L for 48 h before DNA labeling by propidium iodide and cell cycle analysis by flow cytometry. (B) YL143 induces apoptosis in H1975 cells. H1975 cells were treated with 3, 30 or 300 nmol/L for 48 h before DNA labeling by Annexin V and 7‐AAD and cell apoptosis analysis by flow cytometry. (C) The effect of YL143 on the expression of CDK4, Cyclin D2, CDK2, Cyclin E, Caspase‐9 and Caspase‐3 was tested by western blotting. […]

EGFR^L858R = target: T1, EGFR^L858R (Homo sapiens, UniProt P00533, L858R); test: FRET-based Z'-Lyte kinase assay, EGFR L858R; assay type: biochemical; details: AV ± SD; 1.5 h incubation
T1 construct: purchased Invitrogen
Protocol: (§2) The kinase activity assay was performed and optimized according to the instructions of Z’‐LYTE™ kinase assay kits from the manufacturer (PV4879, Life, America). In our experiments, 10 concentration gradients from 0.01 nmol/L to 1.0 μmol/L were used for all the compounds.

Abl = Abl (Homo sapiens, UniProt P00519); test: Z'-Lyte kinase panel, Abl; assay type: biochemical; details: 1.5 hrs incubation
Protocol: (§3) Kinase activity assays were performed using the FRET-based Z′-Lyte assay according to the manufacturer’s instructions. The compounds were incubated with the kinase reaction mixture for 1.5 hrs before measurement. The data are means from two independent experiments and the variations are below 20%.

FLT3 = FLT3 (Homo sapiens, UniProt P36888); test: Z'-Lyte kinase panel, FLT3; assay type: biochemical; details: 1.5 hrs incubation
Protocol: as §3

ZAK = ZAK (Homo sapiens, UniProt Q9NYL2); test: Z'-Lyte kinase panel, ZAK; assay type: biochemical; details: 1.5 hrs incubation
Protocol: as §3

EGFR^WT = target: T2, EGFR^WT (Homo sapiens, UniProt P00533); test: FRET-based Z'-Lyte kinase assay, EGFR WT; assay type: biochemical; details: AV ± SD; 1.5 h incubation
T2 construct: purchased Invitrogen
Protocol: as §2

AKT3 = AKT3 (Homo sapiens, UniProt Q9Y243); test: Z'-Lyte kinase panel, AKT3; assay type: biochemical; details: 1.5 hrs incubation
Protocol: as §3

AKT1 = AKT1 (Homo sapiens, UniProt P31749); test: Z'-Lyte kinase panel, AKT1; assay type: biochemical; details: 1.5 hrs incubation
Protocol: as §3

CSF1R = CSF1R (Homo sapiens, UniProt P07333); test: Z'-Lyte kinase panel, CSF1R; assay type: biochemical; details: 1.5 hrs incubation
Protocol: as §3

EGFR^L858R/T790M = EGFR^L858R/T790M (Homo sapiens, UniProt P00533, L858R/T790M); test: FRET-based Z'-Lyte kinase assay, EGFR L858R/T790M; assay type: biochemical; parameters: purchased Invitrogen
Protocol: as §2

[2] = system: phosphorylation of EGFR and Erk in H1975 cells; test: Western blot of EGFR signaling in H1975 cells; assay type: cell-based, human; details: 4 h
Protocol: as §1
Cells were treated with or without compound YL143 for 4 h at indicated concentration, respectively. Cells were harvested for Western blot analysis. […] NCI‐H1975 cells were treated with or without compound YL143(100 nmol/L) for 4 h, and then the medium with compound was removed and fresh medium was added. At the indicated time points, cells were harvest and proteins were extracted and subjected to Western blot analysis.

PDGFRA = PDGFRA (Homo sapiens, UniProt P16234); test: Z'-Lyte kinase panel, PDGFRA; assay type: biochemical; details: 1.5 hrs incubation
Protocol: as §3

PDGFRB = PDGFRB (Homo sapiens, UniProt P09619); test: Z'-Lyte kinase panel, PDGFRB; assay type: biochemical; details: 1.5 hrs incubation
Protocol: as §3

Sequence of EGFR^L858R/T790M (P00533 25-1210 T790M/L858R): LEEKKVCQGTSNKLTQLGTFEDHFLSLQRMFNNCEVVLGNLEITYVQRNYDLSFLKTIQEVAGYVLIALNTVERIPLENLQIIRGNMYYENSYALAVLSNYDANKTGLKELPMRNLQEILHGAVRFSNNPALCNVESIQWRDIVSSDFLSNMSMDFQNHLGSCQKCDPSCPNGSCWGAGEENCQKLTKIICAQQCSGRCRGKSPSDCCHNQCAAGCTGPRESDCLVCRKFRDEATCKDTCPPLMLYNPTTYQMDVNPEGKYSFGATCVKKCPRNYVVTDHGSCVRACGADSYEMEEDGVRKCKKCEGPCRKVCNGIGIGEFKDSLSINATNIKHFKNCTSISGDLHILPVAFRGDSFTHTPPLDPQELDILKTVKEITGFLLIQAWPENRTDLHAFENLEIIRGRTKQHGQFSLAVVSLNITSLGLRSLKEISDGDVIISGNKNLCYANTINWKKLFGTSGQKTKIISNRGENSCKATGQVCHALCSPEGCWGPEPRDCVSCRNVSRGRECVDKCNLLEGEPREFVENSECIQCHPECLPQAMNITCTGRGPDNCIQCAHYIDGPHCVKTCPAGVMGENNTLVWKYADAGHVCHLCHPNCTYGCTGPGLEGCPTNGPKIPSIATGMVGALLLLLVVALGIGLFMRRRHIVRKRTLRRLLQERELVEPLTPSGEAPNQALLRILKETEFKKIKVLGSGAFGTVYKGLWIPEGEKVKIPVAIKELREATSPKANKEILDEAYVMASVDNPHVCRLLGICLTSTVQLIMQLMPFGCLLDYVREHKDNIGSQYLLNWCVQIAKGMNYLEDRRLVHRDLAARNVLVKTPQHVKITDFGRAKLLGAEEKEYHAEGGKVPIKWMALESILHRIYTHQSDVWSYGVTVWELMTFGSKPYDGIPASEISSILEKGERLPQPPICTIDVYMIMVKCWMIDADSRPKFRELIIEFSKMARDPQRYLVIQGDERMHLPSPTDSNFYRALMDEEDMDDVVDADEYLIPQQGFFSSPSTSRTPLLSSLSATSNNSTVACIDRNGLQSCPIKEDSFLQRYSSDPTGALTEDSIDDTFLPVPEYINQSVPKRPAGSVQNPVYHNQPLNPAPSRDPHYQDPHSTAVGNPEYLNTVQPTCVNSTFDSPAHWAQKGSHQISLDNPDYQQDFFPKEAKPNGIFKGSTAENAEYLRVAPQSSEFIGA
Sequence of CSF1R (P07333 20-972, species assumed): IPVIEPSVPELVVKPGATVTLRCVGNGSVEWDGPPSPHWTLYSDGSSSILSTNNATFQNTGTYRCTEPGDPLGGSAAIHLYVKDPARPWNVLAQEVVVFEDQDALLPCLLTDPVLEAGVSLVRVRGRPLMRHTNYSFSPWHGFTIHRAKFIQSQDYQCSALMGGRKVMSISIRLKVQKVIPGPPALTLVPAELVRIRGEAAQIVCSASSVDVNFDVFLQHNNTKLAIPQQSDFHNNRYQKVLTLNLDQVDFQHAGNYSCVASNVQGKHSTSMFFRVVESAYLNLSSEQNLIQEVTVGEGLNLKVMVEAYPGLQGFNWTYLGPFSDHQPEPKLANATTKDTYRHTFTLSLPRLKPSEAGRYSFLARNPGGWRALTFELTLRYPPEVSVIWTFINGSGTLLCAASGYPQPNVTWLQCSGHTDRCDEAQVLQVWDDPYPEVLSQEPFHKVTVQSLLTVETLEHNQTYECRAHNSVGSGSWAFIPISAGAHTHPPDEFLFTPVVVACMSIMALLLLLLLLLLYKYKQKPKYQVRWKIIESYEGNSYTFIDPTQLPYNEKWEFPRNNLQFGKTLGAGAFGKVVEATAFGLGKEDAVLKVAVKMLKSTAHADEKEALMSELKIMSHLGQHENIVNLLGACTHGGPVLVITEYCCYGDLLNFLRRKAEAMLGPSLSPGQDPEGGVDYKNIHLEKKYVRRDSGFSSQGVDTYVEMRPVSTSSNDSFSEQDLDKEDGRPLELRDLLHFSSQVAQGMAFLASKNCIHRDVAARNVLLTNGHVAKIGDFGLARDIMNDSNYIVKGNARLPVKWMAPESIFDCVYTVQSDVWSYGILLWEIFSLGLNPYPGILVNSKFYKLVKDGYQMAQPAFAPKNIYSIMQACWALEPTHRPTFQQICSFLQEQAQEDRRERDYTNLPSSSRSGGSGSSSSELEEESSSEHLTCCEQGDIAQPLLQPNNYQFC
Sequence of AKT3 (Q9Y243 whole entry, species assumed): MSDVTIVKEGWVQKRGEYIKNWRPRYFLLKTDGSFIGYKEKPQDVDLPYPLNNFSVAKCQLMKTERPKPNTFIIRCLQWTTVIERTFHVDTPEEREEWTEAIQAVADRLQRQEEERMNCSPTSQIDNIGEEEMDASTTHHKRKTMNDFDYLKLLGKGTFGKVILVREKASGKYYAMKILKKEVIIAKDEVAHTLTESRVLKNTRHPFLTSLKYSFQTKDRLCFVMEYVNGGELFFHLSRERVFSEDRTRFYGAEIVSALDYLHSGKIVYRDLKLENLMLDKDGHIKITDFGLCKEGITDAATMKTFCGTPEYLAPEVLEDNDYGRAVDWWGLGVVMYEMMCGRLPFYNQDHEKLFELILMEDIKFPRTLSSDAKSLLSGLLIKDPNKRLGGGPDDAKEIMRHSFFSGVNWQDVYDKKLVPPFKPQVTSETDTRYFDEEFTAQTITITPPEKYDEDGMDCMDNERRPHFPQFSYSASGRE
Sequence of PDGFRA (P16234 24-1089, species assumed): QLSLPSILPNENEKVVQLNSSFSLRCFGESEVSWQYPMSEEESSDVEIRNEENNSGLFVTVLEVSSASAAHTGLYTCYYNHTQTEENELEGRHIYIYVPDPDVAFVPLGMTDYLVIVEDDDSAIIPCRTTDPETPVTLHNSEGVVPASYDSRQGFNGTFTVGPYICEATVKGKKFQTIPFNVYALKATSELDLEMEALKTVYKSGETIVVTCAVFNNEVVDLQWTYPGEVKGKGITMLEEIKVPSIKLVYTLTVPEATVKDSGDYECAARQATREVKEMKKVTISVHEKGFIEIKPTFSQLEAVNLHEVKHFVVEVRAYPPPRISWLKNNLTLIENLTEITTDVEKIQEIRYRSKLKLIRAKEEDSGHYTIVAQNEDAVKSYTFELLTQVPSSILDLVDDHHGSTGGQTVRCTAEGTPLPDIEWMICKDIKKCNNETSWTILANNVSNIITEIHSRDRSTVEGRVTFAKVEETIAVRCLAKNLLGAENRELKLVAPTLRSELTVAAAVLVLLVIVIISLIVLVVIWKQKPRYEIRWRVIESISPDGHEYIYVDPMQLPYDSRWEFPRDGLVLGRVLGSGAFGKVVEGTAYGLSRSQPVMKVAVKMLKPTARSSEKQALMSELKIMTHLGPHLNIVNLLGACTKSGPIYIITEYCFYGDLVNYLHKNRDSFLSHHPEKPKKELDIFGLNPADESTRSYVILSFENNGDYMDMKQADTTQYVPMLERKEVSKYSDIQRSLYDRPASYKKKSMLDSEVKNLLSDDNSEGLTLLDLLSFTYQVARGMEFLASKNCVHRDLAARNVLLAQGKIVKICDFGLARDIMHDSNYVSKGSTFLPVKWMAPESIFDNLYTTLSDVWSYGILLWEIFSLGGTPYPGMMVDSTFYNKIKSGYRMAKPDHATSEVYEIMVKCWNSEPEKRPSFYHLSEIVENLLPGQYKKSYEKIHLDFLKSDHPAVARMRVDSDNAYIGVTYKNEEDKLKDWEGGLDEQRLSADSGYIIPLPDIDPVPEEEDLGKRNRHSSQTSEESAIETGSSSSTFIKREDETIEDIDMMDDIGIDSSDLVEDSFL
Sequence of ZAK (Q9NYL2 whole entry, species assumed): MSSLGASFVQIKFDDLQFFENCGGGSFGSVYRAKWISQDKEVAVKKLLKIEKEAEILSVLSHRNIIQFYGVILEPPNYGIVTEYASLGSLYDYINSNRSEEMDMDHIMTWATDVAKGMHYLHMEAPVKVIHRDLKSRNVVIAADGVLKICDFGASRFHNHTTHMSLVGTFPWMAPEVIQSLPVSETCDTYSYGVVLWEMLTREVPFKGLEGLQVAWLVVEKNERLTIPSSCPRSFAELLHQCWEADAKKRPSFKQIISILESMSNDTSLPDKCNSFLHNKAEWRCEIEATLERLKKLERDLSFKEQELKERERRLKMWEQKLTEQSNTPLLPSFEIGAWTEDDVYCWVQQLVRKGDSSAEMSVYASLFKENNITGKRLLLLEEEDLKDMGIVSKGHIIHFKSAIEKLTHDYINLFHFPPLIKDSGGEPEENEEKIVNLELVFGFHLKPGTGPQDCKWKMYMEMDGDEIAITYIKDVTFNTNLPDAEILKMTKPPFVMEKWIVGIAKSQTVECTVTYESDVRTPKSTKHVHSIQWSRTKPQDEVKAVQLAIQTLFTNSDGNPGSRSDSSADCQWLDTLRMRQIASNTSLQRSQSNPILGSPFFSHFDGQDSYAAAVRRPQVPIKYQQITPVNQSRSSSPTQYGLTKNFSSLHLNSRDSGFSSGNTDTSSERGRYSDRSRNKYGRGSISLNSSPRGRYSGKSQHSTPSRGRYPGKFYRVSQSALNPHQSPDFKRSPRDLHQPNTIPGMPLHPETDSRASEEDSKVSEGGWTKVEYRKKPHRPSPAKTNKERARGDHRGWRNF
Sequence of AKT1 (P31749 whole entry, species assumed): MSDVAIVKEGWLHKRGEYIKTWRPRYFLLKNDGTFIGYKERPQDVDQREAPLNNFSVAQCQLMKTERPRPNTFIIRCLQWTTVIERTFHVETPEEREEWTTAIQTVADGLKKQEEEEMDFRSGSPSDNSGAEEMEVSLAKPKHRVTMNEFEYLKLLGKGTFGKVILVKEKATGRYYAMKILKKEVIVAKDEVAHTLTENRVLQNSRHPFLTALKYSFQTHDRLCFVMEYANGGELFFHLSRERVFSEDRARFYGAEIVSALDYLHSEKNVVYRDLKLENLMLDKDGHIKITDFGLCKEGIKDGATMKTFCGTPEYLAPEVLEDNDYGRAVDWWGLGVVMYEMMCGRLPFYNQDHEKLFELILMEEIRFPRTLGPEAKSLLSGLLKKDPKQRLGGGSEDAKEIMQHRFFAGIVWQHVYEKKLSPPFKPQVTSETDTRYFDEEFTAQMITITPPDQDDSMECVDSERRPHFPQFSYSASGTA

Q: `C=CC(=O)Nc1cc(C)cc(-n2c(=O)cc(C)c3cnc(Nc4ccc(N5CCN(C)CC5)cc4OC)nc32)c1` [YL143, N‐(3‐(2‐((2‐Methoxy‐4‐(4‐methylpiperazin‐1‐yl)phenyl)amino)‐5‐methyl‐7‐oxopyrido [2,3‐d]pyrimidin‐8(7H)‐yl)‐5‐methylphenyl)acrylamide] was tested. Which IC50 (A431 (EGFR^WT) cells) did it give?
A: > 1 µM

Q: What about the “protein levels of CDK2, CDK4, cyclin D2, cyclin E” value [1] of the same compound?
A: dose‐dependently decreased

Q: And the IC50 (EGFR^L858R)?
A: 0.0491 ± 0.0042 µM

Q: What about the IC50 (Abl) of the same compound?
A: > 10 µM

Q: What about the IC50 (FLT3) of the same compound?
A: > 10 µM

Q: And the IC50 (ZAK)?
A: > 10 µM

Q: And the IC50 (EGFR^WT)?
A: 0.185 ± 0.0434 µM

Q: What about the IC50 (AKT3) of the same compound?
A: > 10 µM

Q: And the IC50 (AKT1)?
A: > 10 µM

Q: And the IC50 (CSF1R)?
A: > 10 µM

Q: And the IC50 (EGFR^L858R/T790M; AV ± SD, 1.5 h incubation)?
A: 0.002 ± 0.0003 µM

Q: What about the “potency factor over CO1686 and osimertinib on EGFR^L858R/T790M” value (EGFR^L858R/T790M; parallel comparison) of the same compound?
A: 5–7

Q: And the “phosphorylation of EGFR and Erk” value [2]?
A: dose‐dependently inhibited

Q: And the IC50 (PDGFRA)?
A: > 10 µM

Q: And the IC50 (PDGFRB)?
A: > 10 µM
